Tests used:
[1] = target: T1, cAMP and cAMP-inhibited cGMP 3',5'-cyclic phosphodiesterase 10A (Homo sapiens, UniProt Q9Y233); test: Inhibition of PDE10A (unknown origin) at 2 uM
[2] = target: T1, cAMP and cAMP-inhibited cGMP 3',5'-cyclic phosphodiesterase 10A; test: Inhibition of PDE10A (unknown origin)
[3] = target: High affinity cGMP-specific 3',5'-cyclic phosphodiesterase 9A (Homo sapiens) (UniProt O76083); test: Inhibition of PDE9A (unknown origin) at 2 uM
[4] = target: cGMP-inhibited 3',5'-cyclic phosphodiesterase 3A (Homo sapiens) (UniProt Q14432); test: Inhibition of PDE3A (unknown origin) at 2 uM
Sequence of cGMP-inhibited 3',5'-cyclic phosphodiesterase 3A (Homo sapiens) (Q14432 whole entry): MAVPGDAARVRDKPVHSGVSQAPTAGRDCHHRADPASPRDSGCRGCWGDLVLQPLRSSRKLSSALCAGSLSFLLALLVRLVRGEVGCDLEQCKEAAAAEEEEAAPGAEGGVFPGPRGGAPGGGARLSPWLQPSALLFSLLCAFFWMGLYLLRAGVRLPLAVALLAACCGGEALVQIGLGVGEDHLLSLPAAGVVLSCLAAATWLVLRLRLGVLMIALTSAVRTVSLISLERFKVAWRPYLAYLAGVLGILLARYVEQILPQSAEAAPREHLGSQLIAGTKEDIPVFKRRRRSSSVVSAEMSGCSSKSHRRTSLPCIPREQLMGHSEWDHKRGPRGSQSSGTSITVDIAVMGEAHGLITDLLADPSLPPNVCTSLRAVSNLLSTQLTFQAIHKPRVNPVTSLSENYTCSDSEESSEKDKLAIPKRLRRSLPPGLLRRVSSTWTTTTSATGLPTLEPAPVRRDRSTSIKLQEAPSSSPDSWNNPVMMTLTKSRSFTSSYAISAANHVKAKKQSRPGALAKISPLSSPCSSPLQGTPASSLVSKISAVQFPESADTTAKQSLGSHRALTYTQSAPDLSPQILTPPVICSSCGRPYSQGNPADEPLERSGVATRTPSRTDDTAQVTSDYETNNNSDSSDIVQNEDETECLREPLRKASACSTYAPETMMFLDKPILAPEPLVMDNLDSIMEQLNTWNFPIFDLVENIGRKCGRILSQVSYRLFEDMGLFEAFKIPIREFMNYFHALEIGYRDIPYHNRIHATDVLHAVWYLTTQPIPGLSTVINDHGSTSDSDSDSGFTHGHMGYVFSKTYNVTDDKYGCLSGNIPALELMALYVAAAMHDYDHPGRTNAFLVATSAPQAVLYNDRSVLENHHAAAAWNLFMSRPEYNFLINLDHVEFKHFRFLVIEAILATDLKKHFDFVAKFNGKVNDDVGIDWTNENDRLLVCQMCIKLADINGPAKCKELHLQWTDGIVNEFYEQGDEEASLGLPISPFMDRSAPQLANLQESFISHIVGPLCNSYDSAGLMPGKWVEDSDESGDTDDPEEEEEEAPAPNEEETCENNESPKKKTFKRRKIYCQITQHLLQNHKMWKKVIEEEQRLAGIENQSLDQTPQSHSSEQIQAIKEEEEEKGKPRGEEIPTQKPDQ

Liver microsomes = test: Intrinsic clearance in human liver microsomes; format: ADME, Microsome
[5] = target: 3',5'-cyclic-AMP phosphodiesterase 4D (Homo sapiens) (UniProt Q08499); test: Inhibition of PDE4D (unknown origin) at 2 uM
Sequence of 3',5'-cyclic-AMP phosphodiesterase 4D (Homo sapiens) (Q08499 whole entry): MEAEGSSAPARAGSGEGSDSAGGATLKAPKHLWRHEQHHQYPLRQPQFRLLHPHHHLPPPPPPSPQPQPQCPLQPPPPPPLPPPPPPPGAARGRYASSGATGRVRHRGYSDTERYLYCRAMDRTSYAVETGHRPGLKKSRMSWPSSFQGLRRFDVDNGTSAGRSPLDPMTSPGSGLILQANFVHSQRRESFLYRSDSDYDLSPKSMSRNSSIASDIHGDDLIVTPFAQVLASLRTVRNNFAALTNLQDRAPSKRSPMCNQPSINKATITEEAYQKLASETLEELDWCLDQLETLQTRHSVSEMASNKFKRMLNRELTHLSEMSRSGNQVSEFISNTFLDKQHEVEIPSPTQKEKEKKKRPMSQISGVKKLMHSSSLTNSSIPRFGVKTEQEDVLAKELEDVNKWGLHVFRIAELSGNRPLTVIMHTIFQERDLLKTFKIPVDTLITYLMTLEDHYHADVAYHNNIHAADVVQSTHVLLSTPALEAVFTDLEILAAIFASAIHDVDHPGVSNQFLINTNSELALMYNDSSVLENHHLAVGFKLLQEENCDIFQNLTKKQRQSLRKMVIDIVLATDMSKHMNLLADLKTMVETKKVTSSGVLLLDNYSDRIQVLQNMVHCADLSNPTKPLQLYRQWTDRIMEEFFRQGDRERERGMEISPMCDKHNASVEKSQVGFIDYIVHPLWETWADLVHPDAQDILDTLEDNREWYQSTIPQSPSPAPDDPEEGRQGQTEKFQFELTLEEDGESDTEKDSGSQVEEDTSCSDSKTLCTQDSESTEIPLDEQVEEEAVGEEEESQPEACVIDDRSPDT

[6] = target: cGMP-dependent 3',5'-cyclic phosphodiesterase (Homo sapiens) (UniProt O00408); test: Inhibition of PDE2 (unknown origin) at 2 uM
Sequence of cGMP-dependent 3',5'-cyclic phosphodiesterase (Homo sapiens) (O00408 whole entry): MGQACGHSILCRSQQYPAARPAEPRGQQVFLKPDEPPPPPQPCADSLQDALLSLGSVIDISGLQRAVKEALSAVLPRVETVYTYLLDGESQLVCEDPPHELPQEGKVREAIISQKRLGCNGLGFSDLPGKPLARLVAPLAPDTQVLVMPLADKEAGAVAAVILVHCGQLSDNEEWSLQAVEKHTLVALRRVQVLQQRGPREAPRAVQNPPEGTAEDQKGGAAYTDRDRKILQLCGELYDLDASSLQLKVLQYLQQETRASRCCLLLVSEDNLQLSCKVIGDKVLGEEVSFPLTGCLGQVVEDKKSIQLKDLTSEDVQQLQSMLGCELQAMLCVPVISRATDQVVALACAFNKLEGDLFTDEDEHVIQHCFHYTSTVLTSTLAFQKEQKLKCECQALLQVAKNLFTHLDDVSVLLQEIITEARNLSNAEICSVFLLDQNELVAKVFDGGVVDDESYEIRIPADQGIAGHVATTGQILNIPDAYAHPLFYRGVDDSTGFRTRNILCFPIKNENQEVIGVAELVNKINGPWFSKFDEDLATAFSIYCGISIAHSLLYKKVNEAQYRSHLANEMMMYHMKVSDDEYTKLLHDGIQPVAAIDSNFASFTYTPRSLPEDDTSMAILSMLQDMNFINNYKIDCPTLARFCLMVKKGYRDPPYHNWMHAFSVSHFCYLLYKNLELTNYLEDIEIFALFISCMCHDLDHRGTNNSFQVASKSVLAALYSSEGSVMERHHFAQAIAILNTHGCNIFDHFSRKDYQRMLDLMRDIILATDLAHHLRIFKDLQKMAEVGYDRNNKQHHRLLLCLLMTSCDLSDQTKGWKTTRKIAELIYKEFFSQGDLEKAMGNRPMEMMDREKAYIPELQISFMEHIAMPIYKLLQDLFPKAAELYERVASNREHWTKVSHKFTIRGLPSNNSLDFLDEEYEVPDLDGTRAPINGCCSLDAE

[7] = target: Voltage-gated inwardly rectifying potassium channel KCNH2 (Homo sapiens, UniProt Q12809); test: Inhibition of human ERG
Homo sapiens = species on record: Homo sapiens; test: Selectivity ratio of IC50 for PDE (unknown origin) to IC50 for PDE10A (unknown origin)
[8] = Ratio of drug uptake in brain to plasma in rat; format: ADME; conditions: read-out: BPR
Rattus norvegicus = species on record: Rattus norvegicus; test: Antipsychotic activity in rat assessed as inhibition of amphetamine-stimulated locomotor activity; format: functional

T1 sequence (Q9Y233 whole entry): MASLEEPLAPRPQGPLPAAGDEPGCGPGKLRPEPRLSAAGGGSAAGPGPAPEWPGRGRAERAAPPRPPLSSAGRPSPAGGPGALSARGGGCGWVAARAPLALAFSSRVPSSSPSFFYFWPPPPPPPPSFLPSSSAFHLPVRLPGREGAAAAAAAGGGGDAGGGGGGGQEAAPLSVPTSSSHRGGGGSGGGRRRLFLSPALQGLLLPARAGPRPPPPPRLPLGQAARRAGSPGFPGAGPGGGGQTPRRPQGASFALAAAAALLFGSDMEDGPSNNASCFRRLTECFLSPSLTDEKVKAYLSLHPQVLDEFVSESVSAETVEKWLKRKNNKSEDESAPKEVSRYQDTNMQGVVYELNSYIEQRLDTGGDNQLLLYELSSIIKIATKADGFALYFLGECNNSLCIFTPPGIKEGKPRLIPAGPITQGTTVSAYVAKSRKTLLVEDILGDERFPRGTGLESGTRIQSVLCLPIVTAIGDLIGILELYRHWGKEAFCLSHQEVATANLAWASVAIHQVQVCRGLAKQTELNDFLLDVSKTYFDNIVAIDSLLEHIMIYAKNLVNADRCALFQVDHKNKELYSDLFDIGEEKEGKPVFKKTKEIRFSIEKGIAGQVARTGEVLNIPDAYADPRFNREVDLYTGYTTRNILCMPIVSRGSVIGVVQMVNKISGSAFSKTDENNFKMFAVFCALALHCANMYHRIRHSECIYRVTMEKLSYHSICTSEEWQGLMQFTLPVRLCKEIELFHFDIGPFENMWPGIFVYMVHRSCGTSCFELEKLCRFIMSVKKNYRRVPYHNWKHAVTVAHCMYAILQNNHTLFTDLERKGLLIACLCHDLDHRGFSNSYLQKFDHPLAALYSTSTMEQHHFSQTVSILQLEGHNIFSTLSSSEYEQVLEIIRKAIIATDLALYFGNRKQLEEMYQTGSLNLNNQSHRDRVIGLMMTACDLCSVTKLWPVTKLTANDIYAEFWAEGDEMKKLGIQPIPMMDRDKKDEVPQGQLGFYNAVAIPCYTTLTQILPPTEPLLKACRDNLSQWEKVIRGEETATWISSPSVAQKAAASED
Sequence of High affinity cGMP-specific 3',5'-cyclic phosphodiesterase 9A (Homo sapiens) (O76083 whole entry): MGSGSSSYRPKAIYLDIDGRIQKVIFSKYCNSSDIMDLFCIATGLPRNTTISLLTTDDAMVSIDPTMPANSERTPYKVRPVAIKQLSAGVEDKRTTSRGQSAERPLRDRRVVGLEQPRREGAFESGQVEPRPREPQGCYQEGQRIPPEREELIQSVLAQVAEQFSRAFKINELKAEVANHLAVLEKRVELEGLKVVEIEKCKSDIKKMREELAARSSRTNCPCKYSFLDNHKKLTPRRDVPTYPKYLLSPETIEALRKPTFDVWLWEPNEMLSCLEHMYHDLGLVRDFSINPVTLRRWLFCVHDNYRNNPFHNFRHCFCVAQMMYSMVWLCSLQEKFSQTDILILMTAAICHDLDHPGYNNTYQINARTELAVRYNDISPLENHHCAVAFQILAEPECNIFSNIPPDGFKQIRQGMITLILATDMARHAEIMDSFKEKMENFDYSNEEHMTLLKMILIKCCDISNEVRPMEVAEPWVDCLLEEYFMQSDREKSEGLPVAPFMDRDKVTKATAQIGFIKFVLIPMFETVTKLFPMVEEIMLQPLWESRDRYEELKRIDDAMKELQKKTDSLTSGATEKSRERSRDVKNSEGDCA

inhibition [1] [%]	IC50 [2] [nM]	SMILES	further results
104	61	CN(C(=O)c1ccc2ncsc2c1)c1ccc(OCc2nc3ccccc3n2C)cc1	
105	93	CN(C(=O)c1ccc(OCc2ccc3ccccc3n2)cc1)c1ccc2ncoc2c1	
96	660	CN(C(=O)c1ccccc1)c1ccc(OCc2ccc3ccccc3n2)cc1	
62		CN(C(=O)c1cccnc1)c1ccc(OCc2ccc3ccccc3n2)cc1	
101	31	CN(C(=O)c1ccc2ncsc2c1)c1ccc(OCc2ccc3ccccc3n2)cc1	inhibition [3]: 5%; CLH (Liver microsomes): 2.2 L/min; inhibition [6]: 1%
33		O=C(Nc1ccc(OCc2ccc3ccccc3n2)cc1)c1ccncc1	
103	87	CN(C(=O)c1cnc(-c2cccnc2)s1)c1ccc(OCc2ccc3ccccc3n2)cc1	
98	460	CN(C(=O)c1ccc(-n2ccnc2)cc1)c1ccc(OCc2ccc3ccccc3n2)cc1	
88	1600	CN(C(=O)c1ccncc1)c1ccc(OCc2cn3ccccc3n2)cc1	
99	110	CN(C(=O)c1cc(-c2ccncc2)n[nH]1)c1ccc(OCc2ccc3ccccc3n2)cc1	
	660	CCCCN(C(=O)c1ccncc1)c1ccc(OCc2ccc3ccccc3n2)cc1	
90	1600	Cc1cccc(COc2ccc(N(C)C(=O)c3ccc4ncsc4c3)cc2)n1	

Further lines, the compound ahead of its results:

SMILES	inhibition [1] [%]	IC50 [2] [nM]	further results
CN(C(=O)c1cc(-c2cccnc2)n[nH]1)c1ccc(OCc2ccc3ccccc3n2)cc1	101	13	
CN(C(=O)c1cc(-c2ccccn2)n[nH]1)c1ccc(OCc2ccc3ccccc3n2)cc1	100	12	inhibition [3]: 0%; inhibition [4]: 0%; CLH (Liver microsomes): 2.4 L/min; inhibition [5]: 0%; inhibition [6]: 12%
CN(C(=O)c1ccncc1)c1ccc(OCc2ccc3ccccc3n2)cc1	80	250	IC50 [7]: > 50000 nM; inhibition [3]: 22%; inhibition [4]: 16%; CLH (Liver microsomes): 1.1 L/min; inhibition [5]: 4%; Ratio IC50 (Homo sapiens): > 50; Kp [8]: 0.6; ED50 (Rattus norvegicus): 60 mg/kg; inhibition [6]: 14%
CN(C(=O)c1ccc(OCc2ccc3ccccc3n2)cc1)c1ccncc1	101	140	
CCN(C(=O)c1ccncc1)c1ccc(OCc2ccc3ccccc3n2)cc1		750	
CN(C(=O)c1ccc(OCc2ccc3ccccc3n2)cc1)c1ccc2ncsc2c1	105	16	inhibition [3]: 7%; inhibition [4]: 12%; CLH (Liver microsomes): 6.1 L/min; inhibition [5]: 13%; inhibition [6]: 15%
CN(C(=O)c1ccc(OCc2ccc3ccccc3n2)cc1)c1ccc2ncnn2c1	101	240	
CN(C(=O)c1ccc(OCc2ccc3ccccc3n2)cc1)c1ccccc1	94	950	
Cn1cc(-c2ccncc2)c(-c2ccc(OCc3ccc4ccccc4n3)cc2)n1 [MARDEPODECT]			CLH (Liver microsomes): 2.2 L/min; ED50 (Rattus norvegicus): 1.8 mg/kg
CN(C(=O)c1ccccn1)c1ccc(OCc2ccc3ccccc3n2)cc1	27		
CN(C(=O)c1cc(-c2ccccc2)n[nH]1)c1ccc(OCc2ccc3ccccc3n2)cc1	102	24	
CN(C(=O)c1ccc(OCc2ccc3ccccc3n2)cc1)c1ccn2ncnc2c1	100	400	
CN(C(=O)c1ccc(OCc2ccc3ccccc3n2)cc1)c1ccc2nccn2c1	105	130	
CN(C(=O)c1cnc(-c2ccncc2)s1)c1ccc(OCc2ccc3ccccc3n2)cc1	101	88	
CN(C(=O)c1ccc2ncsc2c1)c1ccc(OCc2nc3ccccc3o2)cc1	98	920	
